Article PMC12664080, “Tetrazole-containing naphthalene bis-sulfonamide Keap1-Nrf2 interaction inhibitors with unexpected binding modes” (Redox Biology, 2025)
pKd: −log10 of the molar value. “And” between values parts separate entries of the source, which are not always exact repeats. Equal values may be shown once. Read-outs that look alike come from different tables or passages of the source.

Assays:
Keap1 Kelch domain [1] = target: T1, Keap1 Kelch domain (Homo sapiens, UniProt Q14145); test: Differential scanning fluorimetry (DSF) thermal shift assay; assay type: binding; settings: 10 μM compound; Keap1 vehicle control Ti = 61.3 ± 0.3 °C
T1 construct: made in house
T1 sequence (Q14145 322-609): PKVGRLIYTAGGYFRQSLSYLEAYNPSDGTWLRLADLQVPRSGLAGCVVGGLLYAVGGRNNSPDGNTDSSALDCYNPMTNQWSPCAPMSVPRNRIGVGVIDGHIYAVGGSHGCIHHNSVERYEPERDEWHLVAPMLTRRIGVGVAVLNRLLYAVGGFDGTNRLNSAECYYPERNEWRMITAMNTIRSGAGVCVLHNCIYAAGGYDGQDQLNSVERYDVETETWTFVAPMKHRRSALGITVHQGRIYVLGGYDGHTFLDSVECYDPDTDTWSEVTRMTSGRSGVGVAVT
Procedure: The DSF assays were carried out according to the previously described method. Solutions of the Keap1 Kelch domain protein (5 μM final concentration) and the small molecule inhibitor (10 μM final concentration) were prepared in DPBS at pH 7.4 (10 % final DMSO concentration, 20 μL final volume) in an Eppendorf tube. The solution was centrifuged briefly (1500 rpm, 60 s) to remove any particulates and mix the samples, followed by a 30 min incubation at RT. The samples were loaded into Tycho NT.6 capillaries (Nanotemper) in triplicate and positioned in the […] instrument. […] The fluorescence ratio vs temperature was plotted and the inflection temperature (Ti) of the profile was recorded. Changes in inflection (ΔTi) for the inhibitors were calculated by subtracting the mean Ti of the Keap1 sample plus vehicle from the mean Keap1 plus binder value (n = 3).

Nrf2 = Nrf2 luciferase reporter assay (MCF7 ARE-luciferase reporter cell line); assay type: cell-based; settings: Homo sapiens, MCF7 cells
Procedure: The induction of luciferase activity in the stably transfected MCF7 ARE-luciferase reporter cell line was measured using an adaptation of a published procedure. […] The cells were treated with compound or vehicle control (1 % final DMSO concentration) and incubated for a further 24 h. The culture medium was aspirated and the cells were washed with 100 μL per well PBS. The cells were lysed using 75 μL per well lysis buffer (0.2 % Triton X-100 in 25 mM Tris pH 7.5) under gentle agitation at rt for 30 min. The samples were transferred to 500 μL Eppendorf tubes and centrifuged at 10000 g for 5 min at 4 °C. 50 μL of supernatant from each sample were transferred to a new 96 well plate. 50 uL of working reagent (100 mM Tris pH 8.0, 5 mM MgCl2, 100 μM coenzyme A, 80 μM luciferin, and 5 mM ATP) were added to each well and the luciferase activity was measured.

Keap1 Kelch domain [2] = target: T1, Keap1 Kelch domain; test: Isothermal titration calorimetry (ITC); assay type: binding
Procedure: The measurements were performed as described previously. The small molecule inhibitor at 500 μM was titrated over 30 injections against 50 μM protein in buffer containing 25 mM HEPES (pH 7.4), 200 mM NaCl and 5 % DMSO. ITC experiments were performed using a MicroCal PEAQ-ITC instrument (Malvern Instruments, UK) at 25 °C with a stirring speed of 750 rpm. The first injection volume was of 0.3 μL followed by 29 injections of 1.3 μL and a gap of 120 s between each injection. Data analyses were performed as previously described. Each small molecule ITC measurement was performed in duplicate and resultant values obtained were averaged after independent analysis.

Nrf2 target genes = test: Gene expression analysis (real-time quantitative PCR) in Hepa1c1c7 cells; assay type: cell-based, mouse; settings: 16-h incubation, 10 μM or 50 μM
Procedure: Hepa1c1c7 cells (5 × 10^5 cells/well, n = 3) were seeded on six-well plates, and on the next day were treated with compound 25 (10 μM or 50 μM) or vehicle (0.1 % DMSO) for 16 h. After two washes with PBS, the cells were lysed. RNA was then extracted, cDNA was synthesised, and the levels of mRNA for each gene were determined by real-time quantitative PCR (TaqMan). The levels of 18S mRNA in each sample were used as a control for normalization.

[3] = 1D 1H NMR lineshape analysis of cis/trans rotamer exchange
Procedure: Exchange was quantified using a two-site exchange model [40] implemented in Julia, where resonances were fitted to calculate chemical shifts of the two states and the exchange rates kAB and kBA between them. […] Reported uncertainties were determined from the standard errors of the fits.
Exchange rates kAB and kBA were used to determine the relative populations pA=kBA/kAB+kBA and pB=kAB/kAB+kBA and were fitted to van't Hoff and Eyring equations (with unit transmission coefficient) to estimate the enthalpy and entropy changes and enthalpy and entropy of activation.

[4] = D2O PBS buffer, pH* ~7.4, lineshape

DSF ΔTi (Keap1 Kelch domain [1]): 19.4 ± 0.4 °C
pKd (Keap1 Kelch domain [2]; 25 °C, read-out: ITC Kd): > 9.00
pKd (Keap1 Kelch domain [2]; from ITC and MST data, read-out: Kd value for Keap1 Kelch domain (overall, lower limit of detection)): ≥ 9.00
Occupancy of the more shielded state (A) ([3]; D2O PBS buffer (pH* ~7.4), 300 K): 0.606 ±0.003
Occupancy of the more shielded state (A) ([3]; D2O PBS buffer (pH* ~7.4), 310 K): 0.586 ±0.001
Occupancy of the more shielded state (A) ([3]; D2O PBS buffer (pH* ~7.4), 320 K): 0.567 ±0.001
ΔHAB [3, 4]: 1.561 ± 0.00526 kcal/mol
ΔH^‡AB [3, 4]: 17.4 ± 0.55 kcal/mol
ΔSAB [3, 4]: 18.19 ± 0.07
ΔS^‡AB [3, 4]: 0.65 ± 7.2
Occupancy of the more shielded state (A) ([3]; DMSO, 300 K): 0.486 ±0.003
Occupancy of the more shielded state (A) ([3]; DMSO, 310 K): 0.491 ±0.001
Occupancy of the more shielded state (A) ([3]; DMSO, 320 K): 0.496 ±0.0005
ΔH^‡AB ([3]; DMSO, lineshape, Eyring): 11.5 ± 3.11 kcal/mol
ΔS^‡AB ([3]; DMSO, lineshape, Eyring): -79 ± 41
ΔSAB ([3]; DMSO, lineshape, van't Hoff): -5.26 ± 0.17
SMILES: COc1ccc(S(=O)(=O)N(CC(=O)O)c2ccc(N(Cc3nnn[nH]3)S(=O)(=O)c3ccc(OC)cc3)c3ccccc23)cc1 [Compound 25, N-(4-((N-((1H-tetrazol-5-yl)methyl)-4-methoxyphenyl)sulfonamido)naphthalen-1-yl)-N-((4-methoxyphenyl)sulfonyl)glycine]
fold induction at 10 µM (Nrf2; 10 μM, 24 h): 1.48
fold induction at 100 µM (Nrf2; 100 μM (highest test concentration), read-out: peak fold induction of luciferase activity): 5.66
mRNA levels for Nrf2 target genes (NQO1, HO-1, GstP, Gclm, Gclc) (Nrf2 target genes): increased
kA→B ([3]; D2O PBS buffer, 300 K, lineshape): 1.432 s^-1 and 1.432 ±0.015^c s^-1
kA→B ([3]; D2O PBS buffer, 310 K, lineshape): 3.488 ±0.014^c s^-1
kA→B ([3]; D2O PBS buffer, 320 K, lineshape): 8.912 ±0.024^c s^-1
kA→B ([3]; DMSO, 300 K, lineshape): 3.059 ± 0.029 s⁻¹
kA→B ([3]; DMSO, 310 K, lineshape): 3.982 ± 0.007 s⁻¹
kA→B ([3]; DMSO, 320 K, lineshape): 8.749 ± 0.012 s⁻¹
